# Where a SMILES comes first, the peptide text is derived from it. [ ]: non-standard residue; d: D form. Aib = CC(C)(N)C(=O)O
# What was measured:
# [1] = tested on: high-fat diet-induced hyperlipidemia hamsters; assay: Blood lipid levels in high-fat diet hamsters, comparison with VICTOZA (Example 6); assay type: in vivo, Golden Syrian hamsters; settings: vs 35.5 nmol/kg VICTOZA s.c., 3.25 nmol/kg SEQ ID NO: 25-Fc or 8.96 nmol/kg SEQ ID NO: 23-Fc s.c.
# Method: The effect of reducing lipid levels was compared between the oxyntomodulin derivative conjugate and known VICTOZA®.
# As described in Example 5, hamsters were divided into a normal hamster group and hamster groups fed with a high-fat diet. The normal hamster group was administered subcutaneously with 5 ml/kg of DPBS once or more a week. The hamster groups fed with high-fat diet were divided into a group administered subcutaneously with 5 ml/kg of DPBS once or more a week, a group administered subcutaneously with 35.5 nmol/kg of VICTOZA® once or more a week, a group administered subcutaneously with 3.25 nmol/kg of the SEQ ID NO: 25-Fc conjugate, and a group administered subcutaneously with 8.96 nmol/kg of the SEQ ID NO:23-Fc conjugate, and the blood lipid levels of the groups were analyzed.
# [2] = tested on: high-fat diet-induced hyperlipidemia hamsters; assay: Reduction in lipid levels in hyperlipidemia model hamsters (Example 5); assay type: in vivo, Golden Syrian hamsters; settings: vs high-fat diet group, s.c. once a week for 2 weeks, 3.25 nmol/kg SEQ ID NO: 25-Fc or 8.96 nmol/kg SEQ ID NO: 23-Fc
# Text: 8 week-old male hamsters (Golden Syrian hamsters, 120-130 g) were purchased from Vital River China. It is known that hamsters show blood lipid profiles similar to humans, unlike other rodents, and are sensitive to high-fat diets.
# The animals were allowed access to a sterilized high-fat diet (Purina 5001 containing 11.5% maize oil, 11.5% coconut oil, 0.5% cholesterol, and 0.25% deoxycholate; Dyets, Bethlehem, Pa.) or a standard rodent diet (low fat, 2018; Harlan Teklad, Madison, Wis.). A normal diet group was allowed access to filtered and UV-sterilized tap water, and a high-fat diet group was allowed access to water containing 10% fructose. The animals were kept in a breeding chamber satisfying GLP standards under a 12-hr light/12-hr dark cycle (lighting: am 6 to pm 6), and all the experimental procedures were performed according to the standard guideline for animal experiments. Drug administration was started after 3 weeks of hyperlipidemia induction, and the animals were divided into four groups (n=6) as shown in Table 3 below.
# (§1) Group 3 (hyperlipidemia-induced group+group administered with 3.25 nmol/kg of SEQ ID NO: 25-Fc conjugate) was fed with a high-fat diet to induce hyperlipidemia, and then administered with 3.25 nmol/kg of the SEQ ID NO: 25-Fc conjugate (prepared in Example 4) once a week at an injection dose of 5 ml/kg.
# as §1, with “4” for “3”, “8.96” for “3.25”, “23-Fc” for “25-Fc”, “3)” for “4)”
# Saline or the drug was administered into each group (n=6) for 2 weeks, and then the effects thereof on a reduction in lipid levels were analyzed.
# Blood was collected from the hamsters which were administered or not administered with the long-acting oxyntomodulin derivative as described in Example 5-1, and the lipid levels of the blood were analyzed using HITACHI 7020.
# FIGS. 1 to 5 show the change in blood triglyceride levels (FIG. 1), the change in blood total cholesterol levels (FIG. 2), the change in LDL-cholesterol levels (FIG. 3), blood HDL-cholesterol levels (FIG. 4), and the change in the blood HDL/LDL-cholesterol ratio (FIG. 5). The obtained results were statistically processed, and the mean values and the standard deviations of the mean values were calculated. In the verification of significance between the groups (n=6), data were statistically processed using Dunnett's test of one-way ANOVA, and a value of p<0.05 was considered statistically significant.
# [3] = target: T1, human glucagon receptor (Homo sapiens, UniProt P47871); assay: cAMP response in CHO cells expressing glucagon receptor (CHO/GCGR); assay type: cell-based
# T1 construct: Using a portion corresponding to the ORF (open reading frame) of cDNA; expressed in transfected cells; host or cells: CHO DG44
# T1 sequence (P47871 26-477): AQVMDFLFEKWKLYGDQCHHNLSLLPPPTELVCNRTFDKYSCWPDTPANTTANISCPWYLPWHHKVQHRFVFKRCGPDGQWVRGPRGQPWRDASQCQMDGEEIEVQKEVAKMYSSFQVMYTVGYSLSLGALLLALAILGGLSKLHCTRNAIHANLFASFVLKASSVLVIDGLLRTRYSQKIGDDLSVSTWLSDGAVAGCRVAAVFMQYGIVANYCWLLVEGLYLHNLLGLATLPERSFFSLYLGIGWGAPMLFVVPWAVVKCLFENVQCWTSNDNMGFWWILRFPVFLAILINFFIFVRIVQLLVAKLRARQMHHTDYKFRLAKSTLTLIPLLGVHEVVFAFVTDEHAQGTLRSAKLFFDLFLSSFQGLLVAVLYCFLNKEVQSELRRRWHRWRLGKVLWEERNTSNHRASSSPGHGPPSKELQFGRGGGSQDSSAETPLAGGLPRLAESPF
# Method: The PCR product was cloned into the known animal cell expression vector x0GC/dhfr, thereby constructing the recombinant vector x0GC/GCGR.
# (§2) The recombinant vector x0GC/GCGR was introduced into a CHO DG44 cell line, cultured in DMEM/F12 (10% FBS) medium, using lipofectamine (Invitrogene, USA), to obtain a transformant. The transformant was incubated in a selective medium containing 1 mg/mL G418 and 10 nM methotraxate, and monoclonal cell lines were selected therefrom.
# (§3) The cultured cells were washed with KRB buffer, suspended in 40 ml of 1 mM IBMX-containing KRB buffer, and then allowed to stand at room temperature for 5 minutes. […] Then, 20 ml of cell lysis buffer was added to lyse the cells, and the concentration of cAMP in each of the cell lysates was measured using a cAMP assay kit (Molecular Device, USA).
# [4] = target: T2, human GLP-1 receptor (Homo sapiens, UniProt P43220); assay: cAMP response in CHO cells expressing GLP-1 receptor (CHO/GLP-1R); assay type: cell-based
# T2 construct: Using a portion corresponding to the ORF (open reading frame) of cDNA; expressed in transfected cells; host or cells: CHO DG44
# T2 sequence (P43220 24-463): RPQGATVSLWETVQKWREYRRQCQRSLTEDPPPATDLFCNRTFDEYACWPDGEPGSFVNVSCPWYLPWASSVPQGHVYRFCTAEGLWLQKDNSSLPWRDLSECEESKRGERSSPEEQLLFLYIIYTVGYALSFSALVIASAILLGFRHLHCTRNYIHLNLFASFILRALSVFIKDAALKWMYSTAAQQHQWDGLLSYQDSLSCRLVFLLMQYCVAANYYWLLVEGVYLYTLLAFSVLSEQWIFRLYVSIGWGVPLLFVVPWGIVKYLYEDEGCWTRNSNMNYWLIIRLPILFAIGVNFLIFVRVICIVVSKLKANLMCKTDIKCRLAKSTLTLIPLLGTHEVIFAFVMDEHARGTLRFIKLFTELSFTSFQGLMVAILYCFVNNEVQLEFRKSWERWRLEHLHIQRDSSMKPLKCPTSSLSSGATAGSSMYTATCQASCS
# Method: The PCR product was cloned into the known animal cell expression vector x0GC/dhfr, thereby constructing the recombinant vector x0GC/GLP-1R.
# as §2, with “x0GC/GLP-1R” for “x0GC/GCGR”
# as §3
Molecule,blood total cholesterol levels compared to VICTOZA ([1]; FIG. 6),blood LDL-cholesterol level compared to VICTOZA ([1]; FIG. 7),blood HDL-cholesterol levels compared to VICTOZA ([1]; FIG. 8),HDL/LDL-cholesterol ratio compared to VICTOZA ([1]; FIG. 9),blood triglyceride levels compared to VICTOZA ([1]; FIG. 10),blood triglyceride levels ([2]; FIG. 1),blood total cholesterol levels ([2]; FIG. 2),blood LDL-cholesterol levels ([2]; FIG. 3),blood HDL-cholesterol levels ([2]; FIG. 4),blood HDL/LDL-cholesterol ratio ([2]; FIG. 5),EC50 [3] [nM],EC50 [4] [nM]
SEQ ID NO: 25-Fc conjugate: oxyntomodulin derivative of SEQ ID NO: 25 linked at cysteine 30 via MAL-10K-ALD PEG to immunoglobulin Fc (Example 4) (HXQGTFTSDYSKYLDEKRAKEFVQWLMNTC; PEG linker at Cys30 to immunoglobulin Fc; MOD_RES (2)..(2) Aib; (16)..(20) Ring formation between residues),decrease,decrease,significant increases,significant increases,decrease,significantly decreased,significantly decreased,significantly decreased,significant increase,significant increase,–,–
CSCC[C@H](NC(=O)[C@H](CC(C)C)NC(=O)[C@H](Cc1c[nH]c2ccccc12)NC(=O)[C@H](CS)NC(=O)[C@@H](NC(=O)[C@H](Cc1ccccc1)NC(=O)[C@H](CCC(=O)O)NC(=O)[C@H](CCCCN)NC(=O)[C@H](C)NC(=O)[C@H](CCCNC(=N)N)NC(=O)[C@H](CCCCN)NC(=O)[C@H](CCC(=O)O)NC(=O)[C@H](CC(=O)O)NC(=O)[C@H](CC(C)C)NC(=O)[C@H](Cc1ccc(O)cc1)NC(=O)[C@H](CCCCN)NC(=O)[C@H](CO)NC(=O)[C@H](Cc1ccc(O)cc1)NC(=O)[C@H](CC(=O)O)NC(=O)[C@H](CO)NC(=O)[C@@H](NC(=O)[C@H](Cc1ccccc1)NC(=O)[C@@H](NC(=O)CNC(=O)[C@H](CCC(N)=O)NC(=O)C(C)(C)NC(=O)[C@@H](N)Cc1c[nH]cn1)[C@@H](C)O)[C@@H](C)O)C(C)C)C(=O)N[C@@H](CC(N)=O)C(=O)N[C@H](C(=O)O)[C@@H](C)O [SEQ ID NO: 23] (H-H[Aib]QGTFTSDYSKYLDEKRAKEFVCWLMNT-OH; C-terminus assumed),–,–,–,–,–,–,–,–,–,–,5.8,2.46

# From patent US9901621B2, “Composition for treating hyperlipidemia comprising oxyntomodulin derivative” (HANMI PHARM. CO., LTD., priority 2012, dated 2018)
